From paper PMC11477482 (Molecules, 2024)

Tested on: RAW264.7 cells (mitochondrial O2− production)
Experiment: Mitochondrial antioxidant activity (MitoSOX, rotenone-induced superoxide)
Assay type: cell-based, mouse
Conditions: rotenone 20 μM alone, oxidative stress inducer
Method: The human keratinocytes (HaCaT, CLS 300493, Eppelheim, Germany) cell line was cultured with Dulbecco’s Modified Eagle’s Medium (DMEM) (Sigma-Aldrich, St. Louis, MO, USA), supplemented with 10% (v/v) of heat-inactivated fetal bovine serum (FBS), 1% (v/v) antibiotic solution (from a 10,000 U/mL penicillin and 10,000 μg/mL streptomycin stock) (Gibco, Carlsbad, CA, USA), 3.7 g/L sodium bicarbonate, and 1 mM sodium pyruvate (Sigma-Aldrich, St. Louis, MO, USA). The cell culture of keratinocytes was detached with EDTA solution 1X (Sigma-Aldrich, St. Louis, MO, USA) when the cells reached 70–80% confluence in cell culture flasks. The mouse macrophage cell line (RAW 264.7, ATCC TIB-71, Manassas, VA, USA) was cultured in DMEM supplemented with 10% (v/v) non-inactivated FBS, 1% (v/v) antibiotic solution, 1.5 g/L sodium bicarbonate, and 1 mM sodium pyruvate. Macrophages were mechanically detached with a cell scraper and subcultured in (1:10) proportion of cellular suspension to a final volume of DMEM. The human monocytic cell line THP-1 (ATCC® TIB-202™, American Type Culture Collection, Manassas, VA, USA) was cultivated in RPMI 1640 supplemented with 10% inactivated FBS, 25 mM (D)-glucose, 10 mM HEPES, 1 mM sodium pyruvate, 100 U/mL penicillin, and 100 μg/mL streptomycin, and maintained at a cell density of 0.4 × 10^6 cells/mL. Cells were subcultured every 2 or 3 days and maintained in culture for 2–3 months, according to ATCC® instructions.
Mitochondrial superoxide (O2^−) generation was determined using the MitoSOX Red kit, according to the manufacturer’s instructions. Briefly, 5.0 × 10^5 cells/mL were plated in a 12-well plate and incubated for 24 h at 37 °C. The cells were then exposed to the AA, AAG and AAGS solution (500 µM), and after 1 h, rotenone (20 μM) was added, followed by incubation for an additional 5 h. The cells were then carefully detached, transferred to microtubes, and centrifuged at 500× g for 3 min. The cell pellet was washed with HBSS solution (2 × 1 mL), resuspended in PBS solution, and 300 µL was collected in two microtubes for unstained (150 µL) and stained (150 µL) conditions. The stained cells were incubated with 100 μL of freshly prepared MitoSOX solution 2.5 µM at 37 °C for 15 min in the dark. The stained cells were washed with HBSS solution (2 × 1 mL), and the cell pellet was resuspended in 100 μL of PBS and analyzed by flow cytometry using a BD Accuri™ C6 cytometer (San Jose, CA, USA).
CD86 and CD54 levels were analyzed by flow cytometry using the acquisition channels FL1 and FL4. Mitochondrial O2^− production was measured by flow cytometry using the acquisition channel FL2. The relative fluorescence intensity (RFI) of CD86 and CD54 (THP-1 maturation assay) and MitoSOX (mitochondrial antioxidant activity) in the control and chemical-treated cells, based on the geometric mean fluorescence intensity (MFI), was calculated according to the following equation: RFI=MFI of chemical treated cells−MFI of chemical treated unstained cells/MFI of control treated cells−MFI of control unstained cells ×100

Question: C=C(C)[C@H]1Cc2c(ccc3c2O[C@@H]2COc4cc(OC)c(OC)cc4[C@@H]2C3=O)O1 [Rotenone] was tested. Which “relative fluorescence intensity (RFI) of MitoSOX” value did it give?
Answer: Its value is 269.70 ± 11.63%.
